Laboratory results: ChEMBL document CHEMBL1201862, “PubChem BioAssay data set” (2004)
Active and inactive are the calls of the source.

Columns and labels:
[1] = target: T1, Polyadenylate-binding protein 1 (Homo sapiens, UniProt P11940); assay: PABP1 MLLE–PAM2 interaction inhibitors, dose response, miRNA deadenylation inhibitor project, biochemical, fluorescence polarization, Cy5-PAM2 peptide, secondary (AID 602260); format: functional; conditions: read-out: IC50_Mean
[2] = target: Photoreceptor-specific nuclear receptor (Homo sapiens, UniProt Q9Y5X4); format: functional;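 further: potency for compounds that break the NR2E3 corepressor complex and count as activators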
[3] = target: Peroxisome proliferator-activated receptor gamma/Nuclear receptor corepressor 2 (Homo sapiens, UniProt P37231+Q9Y618); format: functional
[4] = target: T1, Polyadenylate-binding protein 1; assay: PABP1 MLLE–PAM2 binding inhibitor potency, dose response, biochemical, fluorescence polarization, FITC-PAM2 peptide (AID 602259); format: functional; conditions: read-out: IC50_Mean
[5] = target: Cyclin-dependent kinase 5/CDK5 activator 1 (Homo sapiens, UniProt Q00535); assay: CDK5/p35 kinase inhibitors, dose response, biochemical, cherry-picked samples, set 2 (AID 504545)
[6] = target: Dual specificity tyrosine-phosphorylation-regulated kinase 1A (Rattus norvegicus, UniProt Q63470); format: biochemical, Homo sapiens
[7] = target: Heat shock protein HSP 90-alpha (Homo sapiens, UniProt P07900); format: functional, organism-based
[8] = target: T2, Endoribonuclease toxin MazF (Escherichia coli K-12, UniProt P0AE70); assay: fluorescent RNA oligo signal without MazF, dose response, counter-screen for MazEF activator project, biochemical, fluorescence, single-stranded RNase substrate (AID 588502); format: functional
T2 sequence (P0AE70 whole entry): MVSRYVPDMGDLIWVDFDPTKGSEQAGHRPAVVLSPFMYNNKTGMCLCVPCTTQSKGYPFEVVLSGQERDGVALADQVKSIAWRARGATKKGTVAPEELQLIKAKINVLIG

ORF 73 = target: T3, ORF 73 (Human herpesvirus 8, UniProt O40947); assay: inhibitors of C-LANA binding to LBS DNA, dose response, biochemical, fluorescence polarization, cherry-picked samples (AID 504725); design: species or system Human gammaherpesvirus 8;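 further: fluorescence polarization of a labeled DNA duplex reporting LANA DNA binding; potency is for inhibitors that block LANA binding to the DNA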
T3 sequence (O40947 whole entry): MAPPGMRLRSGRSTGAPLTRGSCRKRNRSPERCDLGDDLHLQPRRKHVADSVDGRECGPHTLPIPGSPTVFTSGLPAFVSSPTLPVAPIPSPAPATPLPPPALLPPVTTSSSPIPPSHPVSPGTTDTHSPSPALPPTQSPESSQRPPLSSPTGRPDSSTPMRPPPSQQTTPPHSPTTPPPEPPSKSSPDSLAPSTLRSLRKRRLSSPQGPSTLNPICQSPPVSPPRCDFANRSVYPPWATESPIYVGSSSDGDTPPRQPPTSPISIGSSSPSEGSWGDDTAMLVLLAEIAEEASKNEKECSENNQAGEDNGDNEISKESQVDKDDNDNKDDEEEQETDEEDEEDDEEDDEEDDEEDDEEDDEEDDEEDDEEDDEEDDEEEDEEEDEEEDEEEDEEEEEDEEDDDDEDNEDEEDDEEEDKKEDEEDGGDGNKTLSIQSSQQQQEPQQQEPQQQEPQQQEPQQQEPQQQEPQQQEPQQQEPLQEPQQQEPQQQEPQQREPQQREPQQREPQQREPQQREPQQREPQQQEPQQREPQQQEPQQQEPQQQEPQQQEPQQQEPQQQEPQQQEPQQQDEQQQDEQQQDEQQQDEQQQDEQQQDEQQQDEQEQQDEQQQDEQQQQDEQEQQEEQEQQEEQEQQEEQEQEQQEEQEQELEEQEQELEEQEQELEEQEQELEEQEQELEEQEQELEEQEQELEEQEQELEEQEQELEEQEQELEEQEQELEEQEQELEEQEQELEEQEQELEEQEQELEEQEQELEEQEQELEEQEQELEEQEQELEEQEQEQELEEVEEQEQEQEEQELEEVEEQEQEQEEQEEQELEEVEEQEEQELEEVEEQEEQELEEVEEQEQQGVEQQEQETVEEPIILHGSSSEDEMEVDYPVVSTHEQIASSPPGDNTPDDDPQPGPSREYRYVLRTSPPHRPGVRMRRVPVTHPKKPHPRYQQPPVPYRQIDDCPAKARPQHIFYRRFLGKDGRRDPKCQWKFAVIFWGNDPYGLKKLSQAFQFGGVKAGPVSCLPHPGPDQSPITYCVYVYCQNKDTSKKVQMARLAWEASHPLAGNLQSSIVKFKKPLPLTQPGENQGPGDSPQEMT

[9] = target: T2, Endoribonuclease toxin MazF; assay: MazF toxin RNase activators, dose response, biochemical, fluorescence, single-stranded RNA substrate, uHTS hits (AID 588481); format: functional
HeLa = assay: HeLa cell cytotoxicity, dose response, cytotoxicity control, 24 h, cherry-picked samples (AID 504726); format: functional, cell-based; conditions: Homo sapiens;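 further: potency for cytotoxicity as loss of luminescence signal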
Salmon testes DNA = assay: DNA intercalators displacing acridine orange, dose response, artefact control for KSHV LANA DNA-binding inhibitor project, biochemical, fluorescence polarization, cherry-picked samples, set 2 (AID 504727); design: species or system Salmonidae
[10] = target: Eukaryotic translation initiation factor 4H (Homo sapiens, UniProt Q15056); assay: human eIF4H binding inhibitors, primary screen, translation initiation inhibitor project, biochemical, uHTS, fluorescence polarization (AID 2012)
[11] = target: T1, Polyadenylate-binding protein 1; assay: PABP poly(A) RNA binding inhibitors, primary screen, biochemical, fluorescence polarization, uHTS (AID 2014)
[12] = target: Dual specificity protein phosphatase 3 (Homo sapiens, UniProt P51452); assay: VHR1 inhibitor Ki determination, SAR follow-up, biochemical, colorimetric (AID 2004)
Sequence of Dual specificity protein phosphatase 3 (P51452 whole entry): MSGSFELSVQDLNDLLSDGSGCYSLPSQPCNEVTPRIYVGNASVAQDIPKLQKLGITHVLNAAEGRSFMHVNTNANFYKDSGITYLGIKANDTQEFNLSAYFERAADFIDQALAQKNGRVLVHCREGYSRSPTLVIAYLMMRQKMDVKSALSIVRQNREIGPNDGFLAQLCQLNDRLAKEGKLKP

T1 sequence (P11940 whole entry): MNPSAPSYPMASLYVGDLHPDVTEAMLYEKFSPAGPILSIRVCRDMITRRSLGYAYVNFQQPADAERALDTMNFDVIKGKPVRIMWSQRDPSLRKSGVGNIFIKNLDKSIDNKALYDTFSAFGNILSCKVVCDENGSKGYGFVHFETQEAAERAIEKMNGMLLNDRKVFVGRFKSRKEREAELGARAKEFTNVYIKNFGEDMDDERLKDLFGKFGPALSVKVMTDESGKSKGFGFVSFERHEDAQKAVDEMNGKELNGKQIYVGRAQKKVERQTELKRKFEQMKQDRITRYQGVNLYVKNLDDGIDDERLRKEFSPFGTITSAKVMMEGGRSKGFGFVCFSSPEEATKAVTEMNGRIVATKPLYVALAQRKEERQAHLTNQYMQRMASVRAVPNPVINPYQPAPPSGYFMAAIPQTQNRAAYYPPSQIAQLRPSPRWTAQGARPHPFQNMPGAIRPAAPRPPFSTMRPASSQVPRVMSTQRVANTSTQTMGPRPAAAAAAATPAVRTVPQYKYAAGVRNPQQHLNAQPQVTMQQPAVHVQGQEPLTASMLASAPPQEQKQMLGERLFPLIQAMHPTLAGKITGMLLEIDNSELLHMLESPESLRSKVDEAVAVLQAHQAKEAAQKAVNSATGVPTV
Sequence of Peroxisome proliferator-activated receptor gamma/Nuclear receptor corepressor 2 (P37231 whole entry): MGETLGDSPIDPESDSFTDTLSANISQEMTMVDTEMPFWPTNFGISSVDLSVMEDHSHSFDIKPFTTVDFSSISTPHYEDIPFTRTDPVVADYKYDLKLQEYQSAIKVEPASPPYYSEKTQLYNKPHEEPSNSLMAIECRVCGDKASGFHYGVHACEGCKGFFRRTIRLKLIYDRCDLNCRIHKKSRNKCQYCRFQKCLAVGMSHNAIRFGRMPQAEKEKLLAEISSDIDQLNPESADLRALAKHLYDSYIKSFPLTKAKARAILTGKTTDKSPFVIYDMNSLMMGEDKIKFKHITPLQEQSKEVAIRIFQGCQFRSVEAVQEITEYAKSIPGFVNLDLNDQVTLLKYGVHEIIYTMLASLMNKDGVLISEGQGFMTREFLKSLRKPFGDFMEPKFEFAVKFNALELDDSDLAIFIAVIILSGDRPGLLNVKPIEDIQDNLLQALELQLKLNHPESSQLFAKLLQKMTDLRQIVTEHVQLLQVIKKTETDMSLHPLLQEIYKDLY
Sequence of Peroxisome proliferator-activated receptor gamma/Nuclear receptor corepressor 2 (Q9Y618 whole entry): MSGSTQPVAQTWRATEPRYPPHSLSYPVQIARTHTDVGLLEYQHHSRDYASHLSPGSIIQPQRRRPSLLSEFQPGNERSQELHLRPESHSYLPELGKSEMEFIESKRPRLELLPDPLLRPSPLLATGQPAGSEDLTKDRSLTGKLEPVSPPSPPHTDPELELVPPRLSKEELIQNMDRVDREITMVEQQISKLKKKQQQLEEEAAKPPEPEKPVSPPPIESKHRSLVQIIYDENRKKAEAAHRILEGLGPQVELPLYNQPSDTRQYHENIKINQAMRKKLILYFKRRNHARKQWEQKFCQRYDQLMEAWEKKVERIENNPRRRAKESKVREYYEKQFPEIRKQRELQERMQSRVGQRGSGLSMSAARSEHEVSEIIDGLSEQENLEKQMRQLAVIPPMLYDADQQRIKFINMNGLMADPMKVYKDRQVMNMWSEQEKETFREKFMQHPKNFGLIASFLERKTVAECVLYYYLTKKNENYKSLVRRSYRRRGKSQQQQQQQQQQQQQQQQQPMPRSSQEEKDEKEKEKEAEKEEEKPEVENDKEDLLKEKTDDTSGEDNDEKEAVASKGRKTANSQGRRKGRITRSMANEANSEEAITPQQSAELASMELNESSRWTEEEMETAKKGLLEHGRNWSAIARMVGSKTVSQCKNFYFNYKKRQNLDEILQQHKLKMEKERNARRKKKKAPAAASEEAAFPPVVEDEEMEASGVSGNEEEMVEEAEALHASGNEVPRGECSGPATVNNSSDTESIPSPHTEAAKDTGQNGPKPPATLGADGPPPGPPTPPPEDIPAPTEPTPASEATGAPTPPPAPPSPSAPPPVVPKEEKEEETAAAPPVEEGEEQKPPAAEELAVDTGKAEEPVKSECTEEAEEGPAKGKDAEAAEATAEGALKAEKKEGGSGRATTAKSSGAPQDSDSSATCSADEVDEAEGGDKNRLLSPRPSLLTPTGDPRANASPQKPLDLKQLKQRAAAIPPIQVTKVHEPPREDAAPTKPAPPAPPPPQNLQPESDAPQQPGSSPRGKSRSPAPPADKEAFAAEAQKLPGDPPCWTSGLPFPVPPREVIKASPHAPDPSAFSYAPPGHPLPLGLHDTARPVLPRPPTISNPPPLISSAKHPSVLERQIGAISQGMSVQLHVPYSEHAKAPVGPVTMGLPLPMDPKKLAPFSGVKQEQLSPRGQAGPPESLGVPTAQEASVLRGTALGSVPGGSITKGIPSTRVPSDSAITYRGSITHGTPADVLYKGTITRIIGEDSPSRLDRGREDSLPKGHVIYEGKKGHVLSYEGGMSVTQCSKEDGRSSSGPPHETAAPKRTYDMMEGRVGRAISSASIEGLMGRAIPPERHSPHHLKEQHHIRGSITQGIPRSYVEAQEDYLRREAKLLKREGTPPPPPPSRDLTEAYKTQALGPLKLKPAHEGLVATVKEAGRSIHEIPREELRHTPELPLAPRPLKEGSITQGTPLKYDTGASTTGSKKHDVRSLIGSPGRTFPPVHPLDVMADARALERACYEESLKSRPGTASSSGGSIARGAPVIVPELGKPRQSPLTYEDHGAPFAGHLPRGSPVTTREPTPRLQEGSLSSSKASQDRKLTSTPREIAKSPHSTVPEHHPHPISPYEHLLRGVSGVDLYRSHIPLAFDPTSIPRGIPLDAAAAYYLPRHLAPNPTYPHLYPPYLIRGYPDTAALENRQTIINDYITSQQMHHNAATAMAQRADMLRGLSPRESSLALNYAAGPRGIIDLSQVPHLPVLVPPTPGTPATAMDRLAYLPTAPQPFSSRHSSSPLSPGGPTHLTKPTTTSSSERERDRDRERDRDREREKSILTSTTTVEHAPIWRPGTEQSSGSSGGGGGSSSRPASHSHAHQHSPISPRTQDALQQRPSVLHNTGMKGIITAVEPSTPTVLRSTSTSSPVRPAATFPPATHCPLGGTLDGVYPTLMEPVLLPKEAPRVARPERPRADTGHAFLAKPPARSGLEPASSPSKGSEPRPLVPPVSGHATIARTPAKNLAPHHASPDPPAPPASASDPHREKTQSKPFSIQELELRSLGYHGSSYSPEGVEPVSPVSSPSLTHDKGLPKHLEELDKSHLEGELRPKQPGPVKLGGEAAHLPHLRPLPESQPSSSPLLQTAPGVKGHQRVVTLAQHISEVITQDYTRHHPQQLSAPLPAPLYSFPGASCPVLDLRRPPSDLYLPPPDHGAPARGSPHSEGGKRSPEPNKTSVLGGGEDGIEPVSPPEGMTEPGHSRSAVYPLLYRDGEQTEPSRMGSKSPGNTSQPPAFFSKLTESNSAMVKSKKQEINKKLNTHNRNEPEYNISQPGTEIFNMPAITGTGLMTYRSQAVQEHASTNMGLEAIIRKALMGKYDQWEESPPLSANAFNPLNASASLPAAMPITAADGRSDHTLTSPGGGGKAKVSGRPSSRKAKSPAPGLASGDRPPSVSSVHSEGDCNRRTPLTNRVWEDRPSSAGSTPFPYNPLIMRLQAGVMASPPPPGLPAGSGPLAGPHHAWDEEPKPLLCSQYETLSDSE
Sequence of Cyclin-dependent kinase 5/CDK5 activator 1 (Q00535 whole entry): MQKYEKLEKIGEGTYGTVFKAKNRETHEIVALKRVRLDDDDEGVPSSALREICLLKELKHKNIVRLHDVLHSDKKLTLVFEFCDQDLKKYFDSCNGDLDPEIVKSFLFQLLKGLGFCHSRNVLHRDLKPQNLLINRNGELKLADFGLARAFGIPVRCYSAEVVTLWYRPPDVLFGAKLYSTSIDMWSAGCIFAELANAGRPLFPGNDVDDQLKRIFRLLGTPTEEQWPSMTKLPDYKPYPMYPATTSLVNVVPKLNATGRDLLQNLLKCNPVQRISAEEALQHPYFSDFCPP
Sequence of Cyclin-dependent kinase 5/CDK5 activator 1 (Q15078 whole entry, further chain): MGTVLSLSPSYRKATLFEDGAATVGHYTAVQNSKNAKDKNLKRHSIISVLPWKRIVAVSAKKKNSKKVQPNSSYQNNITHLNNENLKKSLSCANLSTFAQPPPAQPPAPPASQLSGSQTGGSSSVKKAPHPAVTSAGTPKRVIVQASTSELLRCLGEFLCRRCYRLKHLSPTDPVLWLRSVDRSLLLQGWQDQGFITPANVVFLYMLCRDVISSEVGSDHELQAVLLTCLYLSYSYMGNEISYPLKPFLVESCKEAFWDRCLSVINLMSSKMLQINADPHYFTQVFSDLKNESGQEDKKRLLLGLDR

SMILES: COc1cccc(NC(=S)Nc2cc(C)cc(C)n2)c1
- IC50 [1]: > 66 µM (inactive)
- IC50 [2]: 2.04 µM (active)
- IC50 [3]: 1.61 µM (active)
- IC50 [4]: > 66 µM (inactive)

SMILES: Nc1cc2c(cc1[N+](=O)[O-])-c1ccccc1C2=NO
- AC50 [5]: 41.2 µM (active)
- AC50 [6]: 0.143 µM (active)
- AC50 [7]: 8.8 µM (active)

SMILES: COc1ccc(-c2cc(C(F)(F)F)c3c(N)c(C(=O)NCCSC)sc3n2)cc1
- EC50 [8]: 61.6 µM (inactive)
- AC50 (ORF 73): 34.5 µM (active)
- EC50 [9]: > 99 µM (inactive)
- AC50 (HeLa): 45.9 µM (active)
- AC50 (Salmon testes DNA): 58.9 µM (active)

SMILES: CN(C)CCNc1c2c(nc3ccccc13)CCC2
- IC50 [10]: 99.1 µM (active)
- IC50 [11]: 32.8 µM (active)

SMILES: CCOC(=O)c1sc(N/N=C/c2cccc(O)c2)nc1C
- Ki [12]: 120 µM (inactive)
